assay: method code G-GLC, from Herzke, D.; Rotard, W. (1999). Physical-chemical properties of polyfluorinated dibenzodioxins and dibenzofurans. Organohalogen Compounds, 41, 171-174.

First: Clc1ccc2oc3ccccc3c2c1Cl
Second: Clc1cc2c(oc3ccccc32)c(Cl)c1Cl
The logP of the first is lower: 5.6 for the first, 6.4 for the second.

`Fc1cc2c(c(F)c1F)Oc1c(F)cc(F)c(F)c1O2` and `Fc1cc(F)c2c(c1F)Oc1c(F)c(F)cc(F)c1O2` are the same in logP: 3.1 for the first, 3.1 for the second.

Compared with `Fc1c(F)c(F)c2c(c1F)Oc1c(F)c(F)c(F)c(F)c1O2`, `Fc1cc2c(cc1F)Oc1c(F)c(F)c(F)c(F)c1O2` is higher in logP: 3 for the first, 3.8 for the second.

Compared with `Clc1ccc2c(c1)Oc1ccc(Cl)cc1O2`, `Fc1ccc2c(c1)Oc1ccc(F)cc1O2` is lower in logP: 5.7 for the first, 3.3 for the second.

`Fc1cc2c(cc1F)Oc1cc(F)c(F)cc1O2` and `Fc1ccc2c(c1)Oc1c(F)c(F)c(F)c(F)c1O2` are within 0.2 log units of each other in logP: 3.5 for the first, 3.6 for the second.

First: Fc1ccc2oc3c(F)c(F)c(F)c(F)c3c2c1F
Second: Fc1cc2oc3c(F)c(F)c(F)c(F)c3c2cc1F
The logP of the first is higher: 4.4 for the first, 4 for the second.

Going from `Clc1c(Cl)c(Cl)c2c(c1Cl)Oc1c(Cl)c(Cl)c(Cl)c(Cl)c1O2` to `Fc1cc2c(oc3ccccc32)c(F)c1F`, the logP falls from 8.2 to 3.4.

— the SangsterLogP compilation
